Measured values from patent publication US20150057246A1, “SILYL-CONTAINING HETEROCYCLIC COMPOUNDS AND METHODS OF USE THEREOF FOR THE TREATMENT OF VIRAL DISEASES” (priority 2012, published 2015).
Where two headings read alike, the source gives them in different places.

Assays:
HCV 1a Y93H replicon = test: Cell-based HCV replicon assay (TaqMan), 1a Y93H mutant replicon; details: EC90 = concentration for ΔCT=3.2 over baseline
Description: (§1) Measurement of inhibition by compounds of the present invention was performed using the HCV replicon system. Several different replicons encoding different HCV genotypes or mutations were used. In addition, potency measurements were made using different formats of the replicon assay, including different ways of measurements and different plating formats. See Jan M. Vrolijk et al., A replicons-based bioassay for the measurement of interferons in patients with chronic hepatitis C, 110 J. VIROLOGICAL METHODS 201 (2003); Steven S. Carroll et al., Inhibition of Hepatitis C Virus RNA Replication by 2′-Modified Nucleoside Analogs, 278(14) J. BIOLOGICAL CHEMISTRY 11979 (2003). However, the underlying principles are common to all of these determinations, and are outlined below.
(§2) TaqMan®-Based Assay Protocol:
(§3) Compounds of the present invention were assayed for cell-based anti-HCV activity using the following protocol. Replicon cells were seeded at 5000 cells/well in 96-well collagen I-coated Nunc plates in the presence of the test compound. Various concentrations of test compound, typically in 10 serial 2-fold dilutions, were added to the assay mixture, with the starting concentration ranging from 250 μM to 1 μM. The final concentration of DMSO was 0.5%, fetal bovine serum was 5%, in the assay media. Cells were harvested on day 3 by the addition of 1× cell lysis buffer (Ambion cat #8721). The replicon RNA level was measured using real time PCR (TaqMan® assay). The amplicon was located in 5B. The PCR primers were: 5B.2F, ATGGACAGGCGCCCTGA (SEQ. ID NO. 1); 5B.2R, […] (SEQ. ID NO. 2); the probe sequence was FAM-labeled CACGCCATGCGCTGCGG (SEQ. ID NO. 3). GAPDH RNA was used as endogenous control and was amplified in the same reaction as NS5B (multiplex PCR) using primers and VIC-labeled probe recommended by the manufacturer (PE Applied Biosystem). The real-time […] reactions were run on ABI PRISM 7900HT Sequence Detection System using the following program: 48° C. for 30 minutes, 95° C. for 10 minutes, 40 cycles of 95° C. for 15 sec, 60° C. for 1 minute. The ΔCT values (CT5B-CTGAPDH) were plotted against the concentration of test compound and fitted to the sigmoid dose-response model using XLfit4 (MDL). EC50 was defined as the concentration of inhibitor necessary to achieve ΔCT=1 over the projected baseline; EC90 the concentration necessary to achieve ΔCT=3.2 over the baseline. Alternatively, to quantitate the absolute amount of replicon RNA, a standard curve was established by including serially diluted T7 transcripts of replicon RNA in the Taqman assay. All TaqMan® reagents were from PE Applied Biosystems. Such an assay procedure was described in detail in e.g. Malcolm et al., Antimicrobial Agents and Chemotherapy 50: 1013-1020 (2006).
(§4) HCV replicon EC50 assay data for various replicons and mutants was calculated for selected compounds of the present invention using this method and is provided in the tables above herein.

HCV 1a replicon = test: Cell-based HCV replicon assay (TaqMan), genotype 1a replicon; details: HCV genotype 1a replicon cells, replicon RNA by real time PCR, day 3, EC90 = concentration for ΔCT=3.2 over baseline
Description: as §1, §2, §3, §4

HCV 1b replicon = test: Cell-based HCV replicon assay (TaqMan), genotype 1b replicon; details: HCV genotype 1b replicon cells, replicon RNA by real time PCR, day 3, EC90 = concentration for ΔCT=3.2 over baseline
Description: as §1, §2, §3, §4

HCV 2b replicon = test: Cell-based HCV replicon assay (TaqMan), genotype 2b replicon; details: Hepatitis C virus, 72 h, read-out: 2b EC90, HCV genotype 2b replicon cells, replicon RNA by real time PCR, day 3; EC90 = concentration for ΔCT=3.2 over baseline
Description: as §1, §2, §3, §4

[1] = Hepatitis C virus, 72 h, read-out: 1a Y93H EC90, HCV 1a Y93H mutant replicon cells, replicon RNA by real time PCR, day 3

SMILES | EC90 (HCV 1a Y93H replicon; [1]) [nM] | EC90 (HCV 1a replicon; Hepatitis C virus, 72 h) [nM] | EC90 (HCV 1b replicon; Hepatitis C virus, 72 h) [nM] | EC90 (HCV 1a Y93H replicon; read-out: 1a Y93H EC90, HCV 1a Y93H mutant replicon cells, replicon RNA by real time PCR, day 3) [nM] | EC90 (HCV 1a replicon) [nM] | EC90 (HCV 1b replicon) [nM] | EC90 (HCV 2b replicon) [nM]
COC(=O)N[C@H](C(=O)N1C[Si](C)(C)C[C@H]1c1ncc(-c2ccc(-c3ccc4c(ccc5nc([C@@H]6CCCN6C(=O)[C@@H](NC(=O)OC)C(C)C)[nH]c54)c3)cc2)[nH]1)C(C)C [Compound 3] | 280 | 0.031 | 0.006 | – | – | – | –
COC(=O)N[C@H](C(=O)N1C[Si](C)(C)C[C@H]1c1ncc(-c2ccc(-c3ccc4c(ccc5[nH]c([C@@H]6[C@H]7CC[C@H](C7)N6C(=O)[C@@H](NC(=O)OC)C(C)C)nc54)c3)cc2)[nH]1)C(C)C [Compound 4] | 333 | 0.097 | 0.005 | – | – | – | –
COC(=O)N[C@H](C(=O)N1CCC[C@H]1c1ncc(-c2ccc(-c3ccc4c(ccc5nc([C@@H]6C[Si](C)(C)CN6C(=O)[C@@H](NC(=O)OC)C(C)C)[nH]c54)c3)cc2)[nH]1)C(C)C [Compound 5] | 181 | 0.012 | 0.006 | – | – | – | –
COC(=O)N[C@H](C(=O)N1C[Si](C)(C)C[C@H]1c1nc2ccc3cc(-c4ccc(-c5cnc([C@@H]6[C@H]7CC[C@H](C7)N6C(=O)[C@@H](NC(=O)OC)C(C)C)[nH]5)cc4)ccc3c2[nH]1)C(C)C [Compound 6] | 404 | 0.17 | 0.02 | – | – | – | –
COC(=O)N[C@H](C(=O)N1CC(F)(F)C[C@H]1c1ncc(-c2ccc(-c3ccc4c(ccc5nc([C@@H]6C[Si](C)(C)CN6C(=O)[C@@H](NC(=O)OC)C(C)C)[nH]c54)c3)cc2)[nH]1)C(C)C [Compound 7] | 172 | 0.047 | 0.005 | – | – | – | –
COC(=O)N[C@H](C(=O)N1C[Si](C)(C)C[C@H]1c1ncc(-c2ccc(-c3ccc4c(ccc5nc([C@@H]6CC(F)(F)CN6C(=O)[C@@H](NC(=O)OC)C(C)C)[nH]c54)c3)cc2)[nH]1)C(C)C [Compound 8] | 65 | 0.042 | 0.02 | – | – | – | –
COC(=O)N[C@H](C(=O)N1CC(F)(F)C[C@H]1c1nc2ccc3cc(-c4ccc5c(ccc6nc([C@@H]7C[Si](C)(C)CN7C(=O)[C@@H](NC(=O)OC)C(C)C)[nH]c65)c4)ccc3c2[nH]1)C(C)C [Compound 9] | 169 | 0.02 | 0.007 | – | – | – | –
COC(=O)N[C@H](C(=O)N1C[C@H](F)C[C@H]1c1ncc(-c2ccc(-c3ccc4c(ccc5nc([C@@H]6C[Si](C)(C)CN6C(=O)[C@@H](NC(=O)OC)C(C)C)[nH]c54)c3)cc2)[nH]1)C(C)C [Compound 10] | 92 | 0.15 | 0.009 | – | – | – | –
COC(=O)N[C@H](C(=O)N1C[C@H](O)C[C@H]1c1ncc(-c2ccc(-c3ccc4c(ccc5nc([C@@H]6C[Si](C)(C)CN6C(=O)[C@@H](NC(=O)OC)C(C)C)[nH]c54)c3)cc2)[nH]1)C(C)C [Compound 11] | 152 | 0.26 | 0.008 | – | – | – | –
COC(=O)N[C@H](C(=O)N1C[Si](C)(C)C[C@H]1c1nc2ccc3cc(-c4ccc(-c5cnc([C@@H]6C[C@H]7C[C@H]7N6C(=O)[C@@H](NC(=O)OC)C(C)C)[nH]5)cc4)ccc3c2[nH]1)C(C)C [Compound 12] | – | – | – | > 100 | 0.006 | 0.001 | –
COC(=O)N[C@H](C(=O)N1CCC[C@H]1c1ncc(-c2ccc(-c3ccc4c(ccc5nc([C@@H]6C[Si](C)(C)CN6C(=O)[C@@H](NC(=O)OC)C6CCOCC6)[nH]c54)c3)cc2)[nH]1)C1CCOCC1 [Compound 18] | > 100 | 0.023 | 0.014 | – | – | – | 2.8
CC[C@H](C)[C@H](NC(=O)OC)C(=O)N1CCC[C@H]1c1ncc(-c2ccc(-c3ccc4c(ccc5nc([C@@H]6C[Si](C)(C)CN6C(=O)[C@@H](NC(=O)OC)[C@@H](C)CC)[nH]c54)c3)cc2)[nH]1 [Compound 22] | 746 | 0.35 | 0.03 | – | – | – | 250
COC(=O)N[C@H](C(=O)N1CCC[C@H]1c1ncc(-c2ccc(-c3ccc4c(ccc5nc([C@@H]6C[Si](C)(C)CN6C(=O)[C@@H](NC(=O)OC)C6CCCCC6)[nH]c54)c3)cc2)[nH]1)C(C)C [Compound 67] | > 1000 | 0.5 | 0.02 | – | – | – | 129
COC(=O)N[C@H](C(=O)N1CCC[C@H]1c1ncc(-c2ccc(-c3ccc4c(ccc5nc([C@@H]6C[Si](C)(C)CN6C(=O)[C@@H](NC(=O)OC)[C@H](O)C(C)C)[nH]c54)c3)cc2)[nH]1)C(C)C [Compound 68] | > 1000 | 0.21 | 0.02 | – | – | – | 143
COC(=O)N[C@H](C(=O)N1CCC[C@H]1c1ncc(-c2ccc(-c3ccc4c(ccc5nc([C@@H]6C[Si](C)(C)CN6C(=O)[C@@H](NC(=O)OC)C6CCOCC6)[nH]c54)c3)cc2)[nH]1)C(C)C [Compound 69] | 118 | 0.33 | 0.05 | – | – | – | 19
COC(=O)N[C@H](C(=O)N1CCC[C@H]1c1ncc(-c2ccc(-c3ccc4c(ccc5nc([C@@H]6C[Si](C)(C)CN6C(=O)[C@@H](NC(=O)OC)C6CC6)[nH]c54)c3)cc2)[nH]1)C(C)C [Compound 70] | > 1000 | 0.35 | 0.02 | – | – | – | 162
COC(=O)N[C@H](C(=O)N1CCC[C@H]1c1ncc(-c2ccc(-c3ccc4c(ccc5nc([C@@H]6C[Si](C)(C)CN6C(=O)C6(NC(=O)OC)CCC6)[nH]c54)c3)cc2)[nH]1)C(C)C [Compound 71] | 288 | 10 | 0.03 | – | – | – | 205
COC(=O)N[C@@H](CC(C)(C)C)C(=O)N1C[Si](C)(C)C[C@H]1c1nc2ccc3cc(-c4ccc(-c5cnc([C@@H]6CCCN6C(=O)[C@@H](NC(=O)OC)C(C)C)[nH]5)cc4)ccc3c2[nH]1 [Compound 72] | 130 | 0.18 | 0.02 | – | – | – | 114
COC(=O)N[C@@H](CN(C)C)C(=O)N1C[Si](C)(C)C[C@H]1c1nc2ccc3cc(-c4ccc(-c5cnc([C@@H]6CCCN6C(=O)[C@@H](NC(=O)OC)C(C)C)[nH]5)cc4)ccc3c2[nH]1 [Compound 73] | > 1000 | 0.19 | 0.05 | – | – | – | 110
COC(=O)N[C@H](C(=O)N1CCC[C@H]1c1ncc(-c2ccc(-c3ccc4c(ccc5nc([C@@H]6C[Si](C)(C)CN6C(=O)[C@H](NC(=O)OC)C(C)(C)OC)[nH]c54)c3)cc2)[nH]1)C(C)C [Compound 74] | > 1000 | 1.3 | 0.03 | – | – | – | 380
COC(=O)NC(Cc1cccs1)C(=O)N1C[Si](C)(C)C[C@H]1c1nc2ccc3cc(-c4ccc(-c5cnc([C@@H]6CCCN6C(=O)[C@@H](NC(=O)OC)C(C)C)[nH]5)cc4)ccc3c2[nH]1 (stereo partly drawn) [Compound 75] | > 1000 | 3.4 | 0.04 | – | – | – | 425
COC(=O)N[C@@H](CSC)C(=O)N1C[Si](C)(C)C[C@H]1c1nc2ccc3cc(-c4ccc(-c5cnc([C@@H]6CCCN6C(=O)[C@@H](NC(=O)OC)C(C)C)[nH]5)cc4)ccc3c2[nH]1 [Compound 76] | 984 | 0.25 | 0.03 | – | – | – | 108
COC(=O)N[C@H](C(=O)N1CCC[C@H]1c1ncc(-c2ccc3cc(-c4ccc5c(ccc6nc([C@@H]7C[Si](C)(C)CN7C(=O)[C@@H](NC(=O)OC)C7CCOCC7)[nH]c65)c4)ccc3c2)[nH]1)C1CCOCC1 [Compound 113] | – | 0.026 | > 1 | – | – | – | 97
